This is an account of results in paper PMC4710522, “A Novel Triazolopyridine-Based Spleen Tyrosine Kinase Inhibitor That Arrests Joint Inflammation” (PLoS ONE, 2016).

“And” between values parts separate entries of the source, which are not always exact repeats. Equal values may be shown once. Read-outs that look alike come from different tables or passages of the source.

One assay deals with panel of 256 kinases. In words: commercial panel of 256 kinases (SelectScreen), overall kinome selectivity. It counts as biochemical. The conditions noted are these: for number of kinases inhibited by >80% of 256 kinases: 3 μM. The protocol: (§1) Syk kinase mode of inhibition studies, including parameters described in Fig 1, were conducted on the LC3000 platform by Caliper Life Sciences (Hopkinton, MA) according to standard protocols developed by the supplier. […] Non-kinase enzyme assays and GPCR, ion channel, and transporter binding assays were run by CEREP (France). Non-GLP manual patch clamp hERG assays were run by ChanTest (Cleveland, Ohio). Vivid® Assay kits (Life Technologies) were used to measure the cytochrome P450 inhibition of the compound against CYP3A, CYP2C9, CYP2C19, CYP2D6, and CYP1A2, as described.
(§2) Kinase activity was measured using either the Z’-Lyte® or the Adapta® protocols as part of the SelectScreen™ profiling service offered at Life Technologies (Grand Island, NY). For the single point measurements (Part A), CC-509 was kept constant at 3 µM while ATP concentrations [ATP] used were at the KM for ATP (KM ATP) for that specific enyzme, at 10 or 100 µM ATP (10 ATP or 100 ATP, respectively), as indicated. Values expressed as percent control (% control) relative to DMSO-only wells (uninhibited, 100%).
(§3) Kinase activity was measured using either the Z’-Lyte® or the Adapta® protocols as part of the SelectScreen™ profiling service offered at Life Technologies (Grand Island, NY). […] Values expressed as percent control (% control) relative to DMSO-only wells (uninhibited, 100%).

Assay [1] concerns primary human neutrophils. In words: primary human neutrophils, opsonized zymosan-stimulated superoxide release. It counts as cell-based. The conditions noted are these: opsonized zymosan stimulation, read-out: IC50, release of superoxide anions. As for the experimental part: Cells were purified from EDTA-treated human whole blood using Polymorphprep (VWR, Radnor, PA) according to the protocol provided by the supplier. Eosinophils were further purified using an Eosinophil Kit (Miltenyi, Auburn, CA) according to manufacturer’s instructions. Neutrophil and eosinophil cell pellets were incubated in phenol red-free RPMI (Life Technologies, Grand Island, NY) for 30 minutes, washed in Kreb’s Ringer buffer, and plated in 96-well white opaque plates (Perkin Elmer, Foster City, CA) for luminescence. […] Neutrophils were activated with 0.5 mg/mL final concentration of opsonized zymosan, incubated for 30 minutes at room temperature in the dark, and then read on an Envision 2104 Multilabel Reader (Perkin Elmer, Foster City, CA). […] For eosinophils, cells were stimulated with IL-3 (200 pM, R&D Systems, Minneapolis, MN) for 24 hours at which point supernatants were collected and assessed for MCP-1 (Mesoscale).
For the TEL-Syk assay, the intensity values for the 700 and 800 channel were exported as text files in ActivityBase (IDBS, Guildford, UK) to derive the ratios that reflect kinase activity. […] For the JAK2 HEL and Ramos NFAT β-lactamase assays, the fluorescence values obtained at 460 nm and 530 nm were exported into ActivityBase to calculate response ratios. […] The mean data from each group was plotted and either the AUC(day 11–18) or % inhibition on day 18 was calculated. […]

For another assay, the target named is T1, PASK_h (Homo sapiens, UniProt Q96RG2).
T1 construct: purchased Life Technologies (Invitrogen) SelectScreen, Z'-LYTE / Adapta
In words: SelectScreen kinase assay. It counts as biochemical. The following applies: KM ATP. The protocol:
as §1, §2, §3

Another assay addresses T2, GRK3_h (Homo sapiens, UniProt P35626).
T2 construct: purchased Life Technologies (Invitrogen) SelectScreen, Z'-LYTE / Adapta
The assay can be described thus: SelectScreen kinase assay. It counts as biochemical. The conditions noted are these: KM ATP. As for the experimental part:
as §1, §2, §3

The target in a further assay is T3, PKC-zeta_h (Homo sapiens, UniProt Q05513).
T3 construct: purchased Life Technologies (Invitrogen) SelectScreen, Z'-LYTE / Adapta
In words: SelectScreen kinase assay. It counts as biochemical. The conditions noted are these: KM ATP. The protocol:
as §1, §2, §3

Another assay concerns the target T4, DYRK3_h (Homo sapiens, UniProt O43781).
T4 construct: purchased Life Technologies (Invitrogen) SelectScreen, Z'-LYTE / Adapta
In words: SelectScreen kinase assay. It counts as biochemical. The following applies: KM ATP. The protocol: as §1, §2, §3

A further assay deals with T5, GRK2_h (Homo sapiens, UniProt P25098).
T5 construct: purchased Life Technologies (Invitrogen) SelectScreen, Z'-LYTE / Adapta
The assay can be described thus: SelectScreen kinase assay. It counts as biochemical. The conditions noted are these: KM ATP. As for the experimental part:
as §1, §2, §3

In a further assay the target is T6, Arg_m (Mus musculus, UniProt Q4JIM5).
T6 construct: purchased Life Technologies (Invitrogen) SelectScreen, Z'-LYTE / Adapta
The assay can be described thus: SelectScreen kinase assay. The conditions noted are these: KM ATP. It counts as biochemical. The protocol: as §1, §2, §3

Assay [2] deals with FcγR-induced TNFα production in primary human macrophage. In words: primary human macrophage assay, anti-IgG stimulated TNF secretion. It counts as cell-based. The protocol:
Mobilized CD14-positive monocytes were plated in 96-well flat bottom plates in RPMI media supplemented with 100 ng/ml GM-CSF for 5 days. The plates were preincubated with CC-509 at indicated concentrations for 30 minutes. Biotinylated anti-IgG and streptavidin at 10 μg/ml final concentrations were thoroughly mixed, added to appropriate wells on the cell plate, and plate placed back in tissue culture incubator 8 hours. Following incubation, supernatants were collected and processed for TNFα Mesoscale single-plex cytokine assay as described by manufacturer (Mesoscale, Gaithersberg, MD). Briefly, the plates were incubated with sample or calibrator for 2 hours on an orbital shaker at room temperature. The detection antibody was added to all wells, the plate incubated for 2 hours at room temperature on an orbital shaker, and washed three times. Diluted Mesoscale detection solution was added to all wells and the plates were read on the Sector Imager instrument (Mesoscale, Gaithersberg, MD) plate reader.
For the TEL-Syk assay, the intensity values for the 700 and 800 channel were exported as text files in ActivityBase (IDBS, Guildford, UK) to derive the ratios that reflect kinase activity. For LAD2 experiments, enzyme activity values were exported as text files into ActivityBase to calculate “percent release” according to the formula: 100* supernatant OD405/ (supernatant OD405 + (pellet OD405*pellet dilution factor)). For the basophil and B-cells assays, flow cytometry data was exported from the FACS Array and processed using FloJo software package (TreeStar, Inc., Ashland, Oregon). For the JAK2 HEL and Ramos NFAT β-lactamase assays, the fluorescence values obtained at 460 nm and 530 nm were exported into ActivityBase to calculate response ratios. […] Evans blue dye extravasation was expressed as mean ± SEM and % inhibition for the test article groups was normalized to the cromolyn positive control. […] The mean data from each group was plotted and either the AUC(day 11–18) or % inhibition on day 18 was calculated. Data is expressed as mean ± SEM of each group with n = 6–12. […]

The test system of assay [3] is primary human eosinophils. The assay can be described thus: primary human eosinophils, IL-3 stimulated MCP-1 secretion. It counts as cell-based. The protocol:
Cells were purified from EDTA-treated human whole blood using Polymorphprep (VWR, Radnor, PA) according to the protocol provided by the supplier. Eosinophils were further purified using an Eosinophil Kit (Miltenyi, Auburn, CA) according to manufacturer’s instructions. Neutrophil and eosinophil cell pellets were incubated in phenol red-free RPMI (Life Technologies, Grand Island, NY) for 30 minutes, washed in Kreb’s Ringer buffer, and plated in 96-well white opaque plates (Perkin Elmer, Foster City, CA) for luminescence. Neutrophils were diluted with Kreb’s Ringer buffer containing luminol (200 μM final concentration, Sigma Chemicals, St. Louis, MO) and preincubated with CC-509 for 30 minutes at 37°C. Neutrophils were activated with 0.5 mg/mL final concentration of opsonized zymosan, incubated for 30 minutes at room temperature in the dark, and then read on an Envision 2104 Multilabel Reader (Perkin Elmer, Foster City, CA). Opsonized zymosan was prepared as follows: Zymosan A (Sigma Aldrich, St. Louis, MO) was boiled, washed, and resuspended to a final concentration of 20mg/ml in 150mM NaCl. […] For eosinophils, cells were stimulated with IL-3 (200 pM, R&D Systems, Minneapolis, MN) for 24 hours at which point supernatants were collected and assessed for MCP-1 (Mesoscale).

T3 sequence (Q05513 whole entry): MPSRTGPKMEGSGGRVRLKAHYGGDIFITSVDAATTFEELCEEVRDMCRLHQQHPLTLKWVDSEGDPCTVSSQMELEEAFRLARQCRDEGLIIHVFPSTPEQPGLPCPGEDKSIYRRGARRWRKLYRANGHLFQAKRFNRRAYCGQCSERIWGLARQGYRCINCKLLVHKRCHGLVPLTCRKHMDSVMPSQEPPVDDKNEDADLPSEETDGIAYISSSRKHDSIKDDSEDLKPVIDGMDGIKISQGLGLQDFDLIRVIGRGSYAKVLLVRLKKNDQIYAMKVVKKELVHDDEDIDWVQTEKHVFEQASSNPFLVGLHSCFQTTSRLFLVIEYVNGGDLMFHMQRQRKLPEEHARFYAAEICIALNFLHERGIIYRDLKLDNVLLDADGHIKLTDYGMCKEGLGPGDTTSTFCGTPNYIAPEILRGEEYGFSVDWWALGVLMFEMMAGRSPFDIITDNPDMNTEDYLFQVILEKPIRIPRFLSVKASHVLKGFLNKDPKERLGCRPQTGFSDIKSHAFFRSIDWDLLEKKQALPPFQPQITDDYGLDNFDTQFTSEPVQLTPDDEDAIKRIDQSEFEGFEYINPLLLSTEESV
T5 sequence (P25098 whole entry): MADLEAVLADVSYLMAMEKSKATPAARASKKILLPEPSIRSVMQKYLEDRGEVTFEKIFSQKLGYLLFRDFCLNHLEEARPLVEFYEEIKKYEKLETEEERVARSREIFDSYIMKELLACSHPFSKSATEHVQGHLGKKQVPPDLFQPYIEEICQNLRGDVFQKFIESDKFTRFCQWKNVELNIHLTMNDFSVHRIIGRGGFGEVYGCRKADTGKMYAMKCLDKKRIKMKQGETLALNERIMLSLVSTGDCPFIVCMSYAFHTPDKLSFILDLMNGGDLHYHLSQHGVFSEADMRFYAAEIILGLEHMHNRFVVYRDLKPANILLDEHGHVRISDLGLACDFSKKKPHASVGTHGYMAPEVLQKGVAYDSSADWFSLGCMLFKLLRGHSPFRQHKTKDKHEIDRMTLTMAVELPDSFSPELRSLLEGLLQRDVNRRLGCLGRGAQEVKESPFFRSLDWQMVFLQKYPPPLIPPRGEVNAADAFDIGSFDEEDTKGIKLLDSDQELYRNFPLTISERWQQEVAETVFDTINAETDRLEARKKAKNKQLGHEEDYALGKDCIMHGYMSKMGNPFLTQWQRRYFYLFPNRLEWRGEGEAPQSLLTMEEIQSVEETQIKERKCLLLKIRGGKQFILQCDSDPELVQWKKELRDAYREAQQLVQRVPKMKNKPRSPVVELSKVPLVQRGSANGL
T6 sequence (Q4JIM5 2-1182 limits assumed): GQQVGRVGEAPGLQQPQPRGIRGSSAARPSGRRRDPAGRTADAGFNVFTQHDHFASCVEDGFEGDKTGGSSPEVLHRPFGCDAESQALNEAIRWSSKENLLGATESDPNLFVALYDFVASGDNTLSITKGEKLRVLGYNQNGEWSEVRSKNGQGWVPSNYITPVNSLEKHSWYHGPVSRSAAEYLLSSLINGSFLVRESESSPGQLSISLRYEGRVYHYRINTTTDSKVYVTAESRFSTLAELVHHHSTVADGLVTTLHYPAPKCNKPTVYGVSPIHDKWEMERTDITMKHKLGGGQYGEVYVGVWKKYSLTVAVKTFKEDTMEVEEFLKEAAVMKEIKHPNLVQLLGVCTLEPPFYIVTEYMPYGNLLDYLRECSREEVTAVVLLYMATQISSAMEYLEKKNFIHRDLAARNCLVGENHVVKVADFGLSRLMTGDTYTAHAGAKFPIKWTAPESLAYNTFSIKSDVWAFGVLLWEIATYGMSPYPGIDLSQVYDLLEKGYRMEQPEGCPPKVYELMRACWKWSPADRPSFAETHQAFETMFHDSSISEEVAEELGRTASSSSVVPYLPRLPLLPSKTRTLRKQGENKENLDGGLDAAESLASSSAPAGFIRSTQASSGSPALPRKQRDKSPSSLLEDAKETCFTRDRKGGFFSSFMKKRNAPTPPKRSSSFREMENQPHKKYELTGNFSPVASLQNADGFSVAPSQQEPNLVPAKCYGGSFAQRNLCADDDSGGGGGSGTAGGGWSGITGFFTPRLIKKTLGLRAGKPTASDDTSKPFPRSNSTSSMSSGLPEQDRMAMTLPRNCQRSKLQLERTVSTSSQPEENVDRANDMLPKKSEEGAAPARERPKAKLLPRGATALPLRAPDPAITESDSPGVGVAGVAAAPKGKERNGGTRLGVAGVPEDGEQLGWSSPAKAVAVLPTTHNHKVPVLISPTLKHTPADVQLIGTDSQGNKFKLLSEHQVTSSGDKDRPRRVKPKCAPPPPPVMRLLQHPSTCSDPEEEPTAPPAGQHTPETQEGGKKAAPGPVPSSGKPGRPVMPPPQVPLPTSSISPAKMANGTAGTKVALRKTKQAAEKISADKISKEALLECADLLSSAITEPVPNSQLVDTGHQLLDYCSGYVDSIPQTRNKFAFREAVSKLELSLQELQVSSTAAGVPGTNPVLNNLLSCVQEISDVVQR
T1 sequence (Q96RG2 whole entry): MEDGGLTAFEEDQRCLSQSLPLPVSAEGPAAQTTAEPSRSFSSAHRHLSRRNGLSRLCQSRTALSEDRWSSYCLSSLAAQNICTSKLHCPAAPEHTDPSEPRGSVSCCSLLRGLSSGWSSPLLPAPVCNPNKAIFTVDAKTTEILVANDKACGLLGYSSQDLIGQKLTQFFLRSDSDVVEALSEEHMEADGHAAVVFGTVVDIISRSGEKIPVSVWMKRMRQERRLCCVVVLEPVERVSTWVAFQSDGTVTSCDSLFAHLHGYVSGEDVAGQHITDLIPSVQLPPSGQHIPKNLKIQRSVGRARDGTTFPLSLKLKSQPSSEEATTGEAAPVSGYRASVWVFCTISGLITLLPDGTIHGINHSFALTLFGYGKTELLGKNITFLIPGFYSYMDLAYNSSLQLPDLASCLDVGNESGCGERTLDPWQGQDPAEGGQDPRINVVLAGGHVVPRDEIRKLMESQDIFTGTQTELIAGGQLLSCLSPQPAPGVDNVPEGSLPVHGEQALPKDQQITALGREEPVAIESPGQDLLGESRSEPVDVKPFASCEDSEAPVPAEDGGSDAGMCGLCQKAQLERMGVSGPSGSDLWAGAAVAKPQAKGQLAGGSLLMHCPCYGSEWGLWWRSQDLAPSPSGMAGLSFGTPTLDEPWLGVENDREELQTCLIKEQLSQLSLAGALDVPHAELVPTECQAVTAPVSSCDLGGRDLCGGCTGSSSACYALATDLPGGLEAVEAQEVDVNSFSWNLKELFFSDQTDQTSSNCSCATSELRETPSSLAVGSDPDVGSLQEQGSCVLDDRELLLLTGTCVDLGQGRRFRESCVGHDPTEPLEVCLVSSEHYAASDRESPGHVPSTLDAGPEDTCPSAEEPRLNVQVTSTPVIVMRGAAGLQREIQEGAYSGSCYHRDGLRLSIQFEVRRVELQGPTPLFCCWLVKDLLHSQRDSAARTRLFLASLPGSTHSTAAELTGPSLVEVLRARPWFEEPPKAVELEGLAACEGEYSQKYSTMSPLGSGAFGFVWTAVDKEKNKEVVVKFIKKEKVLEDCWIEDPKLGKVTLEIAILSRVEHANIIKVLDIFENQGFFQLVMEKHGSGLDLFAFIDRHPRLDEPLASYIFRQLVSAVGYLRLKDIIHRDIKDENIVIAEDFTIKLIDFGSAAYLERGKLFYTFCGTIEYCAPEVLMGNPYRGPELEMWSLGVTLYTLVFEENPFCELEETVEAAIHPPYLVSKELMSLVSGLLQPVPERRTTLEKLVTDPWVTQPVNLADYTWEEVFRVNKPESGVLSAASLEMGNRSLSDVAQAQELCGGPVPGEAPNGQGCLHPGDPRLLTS
T4 sequence (O43781 whole entry): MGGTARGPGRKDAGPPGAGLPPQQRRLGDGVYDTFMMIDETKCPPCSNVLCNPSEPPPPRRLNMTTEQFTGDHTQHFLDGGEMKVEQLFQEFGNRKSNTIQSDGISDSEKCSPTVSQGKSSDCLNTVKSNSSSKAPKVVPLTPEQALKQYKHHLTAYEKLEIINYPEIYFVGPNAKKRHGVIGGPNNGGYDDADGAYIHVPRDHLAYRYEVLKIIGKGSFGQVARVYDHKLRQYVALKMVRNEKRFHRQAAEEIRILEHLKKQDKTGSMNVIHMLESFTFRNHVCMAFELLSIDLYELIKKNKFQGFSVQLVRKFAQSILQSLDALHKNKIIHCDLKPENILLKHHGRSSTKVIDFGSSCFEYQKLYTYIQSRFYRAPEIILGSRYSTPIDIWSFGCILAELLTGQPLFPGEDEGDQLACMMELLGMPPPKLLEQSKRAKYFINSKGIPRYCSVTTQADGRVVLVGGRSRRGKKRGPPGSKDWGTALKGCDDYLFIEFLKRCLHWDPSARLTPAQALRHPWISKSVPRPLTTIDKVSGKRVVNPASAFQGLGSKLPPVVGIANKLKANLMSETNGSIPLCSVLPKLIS
T2 sequence (P35626 whole entry): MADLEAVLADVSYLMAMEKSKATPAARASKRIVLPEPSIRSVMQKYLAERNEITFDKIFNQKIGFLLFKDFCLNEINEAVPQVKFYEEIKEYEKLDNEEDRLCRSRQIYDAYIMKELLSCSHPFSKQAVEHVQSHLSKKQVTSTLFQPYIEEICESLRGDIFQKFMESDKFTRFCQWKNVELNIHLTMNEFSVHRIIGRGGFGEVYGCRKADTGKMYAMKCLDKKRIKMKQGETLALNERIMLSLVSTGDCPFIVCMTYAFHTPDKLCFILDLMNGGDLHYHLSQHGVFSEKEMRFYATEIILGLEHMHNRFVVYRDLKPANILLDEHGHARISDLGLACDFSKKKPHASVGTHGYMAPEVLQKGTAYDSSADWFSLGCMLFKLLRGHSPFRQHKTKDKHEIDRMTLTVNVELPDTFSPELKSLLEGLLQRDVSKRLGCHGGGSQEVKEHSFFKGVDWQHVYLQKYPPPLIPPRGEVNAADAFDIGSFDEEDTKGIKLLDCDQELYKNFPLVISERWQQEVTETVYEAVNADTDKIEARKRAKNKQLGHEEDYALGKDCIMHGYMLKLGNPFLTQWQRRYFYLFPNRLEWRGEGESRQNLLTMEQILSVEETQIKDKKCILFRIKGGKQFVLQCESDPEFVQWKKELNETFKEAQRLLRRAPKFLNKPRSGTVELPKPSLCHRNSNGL

The term IC50 denotes the concentration that inhibits the measured activity by half. Consider `c1cc(CC2CCOCC2)n2nc(Nc3ccc4c(NC5CCOCC5)n[nH]c4c3)nc2c1` [CC-509, [3-(2H-3,4,5,6-tetrahydropyran-4-ylamino)(1H-indazol-6-yl)][5-(2H-3,4,5,6-tetrahydropyran-4-ylmethyl)(2H-1,2,4-triazolo[1,5-a]pyridin-2-yl)]amine], for which the “number of kinases inhibited by >80% of 256 kinases” value with panel of 256 kinases was 27. In addition, in the assay on panel of 256 kinases (calculated from activity in the kinase panel at 3 μM), the Gini score is given as 0.53. Also, the IC50 in assay [1] (Homo sapiens, Neutrophil) came to 3270 ± 1270 nM; in [2] (Homo sapiens, Macrophage, mean ± SD, minimum n = 3, read-out: IC50, TNFα production induced by FcγR cross-linking) it was 170 ± 120 nM; in assay [2] (Homo sapiens, Macrophage FcγR, curve shown in figure, read-out: IC50 printed in Fig 3A panel) it was 110 nM; in [3] (Homo sapiens, Eosinophil) it was 110 ± 50 nM. Besides, the remaining activity at 3 µM was 100% on PASK_h (read-out: % control); 98% at GRK3_h (read-out: % control); 86% on PKC-zeta_h (read-out: % control); 80% at DYRK3_h (read-out: % control); 82% at GRK2_h (read-out: % control); 31% at Arg_m (read-out: % control).

For `COc1cc(Nc2ncc(F)c(Nc3ccc4c(n3)NC(=O)C(C)(C)O4)n2)cc(OC)c1OC` [R406, reference compound], the “number of kinases inhibited by >80% of 256 kinases” value in the assay with panel of 256 kinases worked out at 75. Besides, the IC50 in [1] worked out at 1040 ± 450 nM; in [2] (mean ± SD, minimum n = 3, read-out: IC50, TNFα production induced by FcγR cross-linking), 290 ± 160 nM; in assay [3] it was 1410 ± 1730 nM. The “% control” value is 104% at PASK_h (3 µM); 103% on GRK3_h (3 µM); 100% and 101% at PKC-zeta_h (3 µM); 90% on DYRK3_h (3 µM); 99% at GRK2_h (3 µM); 34% on Arg_m (3 µM).
